SMILES strings stand for the structures. Some results are limits rather than exact numbers.

These results are taken from patent publication US6500821B1, “4-amino-1-aryl-1,5-dihydropyrrol-2-ones and process for making” (Arzneimittelwerk Dresden GmbH, priority 1999, dated 2002).

For one data set, the system named is neurotoxicity. Briefly: Neurotoxicity, rat. It is filed as in vivo. As to the method:
(§1) Compounds according to the present invention were tested in vivo for their anticonvulsive action as shown in Table 1 in mice by i.p. administration, or in rats administered orally according to the internationally customary standard (Pharmac. Weekblad, Sc.Ed. 14 132 (1992) and Antiepileptic Drugs, Third Ed., Raven Press, New York 1989).
(§2) Analogous results were obtained for oral action.

The subject of data set [1] is maximal electroshock. Kind of data set: Maximal electroshock, rat p.o. It counts as in vivo. As to conditions: po. As to the method: as §1, §2
In data set [2] the test system is pentetrazol convulsion model. Kind of data set: Pentetrazol convulsion model, rat p.o. It is filed as in vivo. The settings on record: po. As to the method: as §1, §2
For a further data set, the system named is elevated maze test. Kind of data set: Elevated maze test. It counts as in vivo, mouse. The settings on record: for Activity in % (length of stay in the open arms, control = 100): mouse, intraperitoneal. The text has this:
In this model, mice are placed in an elevated passage system with open and closed arms as described by Pellow, S., Chopin, P., File S. E., Briley, M.: Validation of open: closed arm entries in an elevated plus-maze as a measure of anxiety in rats. J. of Neuroscience Methods 14: 149-167, 1985; Hogg, S.: A review of the validity and variability of the elevated plus-maze as an animal model of anxiety. Pharmacology Biochemistry and Behavior: 21-30, 1996. Untreated animals repeatedly try the closed passages. The inhibition of anxiety is measured by the length of stay in the open arms as a percentage of the total length of stay.

The nature of data set [3]: Octanol/water partition coefficient. The settings on record: read-out: log P (octanol/water partition coefficient). It is filed as physicochemical.
A further data set relates to s.c. pentetrazole. Briefly: Anticonvulsive action, s.c. pentetrazole (PTZ), mouse i.p. It counts as in vivo. The settings on record: ip, read-out: Action, % of the protected animals. The protocol: (§3) Compounds according to the present invention were tested in vivo for their anticonvulsive action as shown in Table 1 in mice by i.p. administration, or in rats administered orally according to the internationally customary standard (Pharmac. Weekblad, Sc.Ed. 14 132 (1992) and Antiepileptic Drugs, Third Ed., Raven Press, New York 1989). [table]

For the next data set, the system named is Vogel Conflict Test. Kind of data set: Vogel Conflict Test. It is filed as in vivo, rat. The text has this: In this model, continuous access to drinking water is withheld from rats for a certain time. After this period, free access is given to drinking water, but is coupled with a mild electrical stimulation. The conflict for the animals is between accepting the electrical stimulation or going without a drink.
The reactions to a conflict situation of this type are similar to the secondary phenomena of anxiety in man. The resulting avoidance reactions can be suppressed by anxiolytic substances. As a measure of the anxiolytic action, the number of tolerated current pulses of the animals treated with the test substance is assessed in comparison to the vehicle-treated control group.

Data set [4] concerns maximal electroshock. Briefly: Anticonvulsive action, maximal electroshock (MES), mouse i.p. It is filed as in vivo. As to conditions: ip, dose 300 mg/kg, read-out: Action, % of the protected animals. As to the method: as §3

Regarding `O=C1C=C(N2CCOCC2)CN1c1ccc(Cl)cc1` [1-(4-chlorophenyl)-4-morpholin-4-yl-1,5-dihydropyrrol-2-one], the NT50 neurotoxicity in the data set on neurotoxicity is recorded as > 500 mg/kg. Moreover, the ED50 worked out at 19 mg/kg in the data set with maximal electroshock [1] and 11 mg/kg in data set [2].

Regarding `O=C1C=C(N2CCOCC2)CN1c1ccc(Cl)cc1` [Compound 4, 1-(4-chlorophenyl)-4-morpholin-4-yl-1,5-dihydropyrrol-2-one], the therapeutic index in the data set on elevated maze test (elevated maze test) and in the data set with Vogel Conflict Test (Vogel Conflict Test) was > 50 each time. For the same compound, the “proportionate length of stay in the open arms (in words)” value in the data set on elevated maze test (intraperitoneal administration) is on record as “significantly increased”. Also, the “Activity in % (length of stay in the open arms, control = 100)” value was 128 (p < 0.05) % in the data set with elevated maze test (1 mg/kg), 110% with elevated maze test (3 mg/kg), 158 (p < 0.05) % in the data set with elevated maze test (10 mg/kg) and 129% in the data set on elevated maze test (30 mg/kg). For the same compound, the logP in [3] stood at 1.91. In the data set with s.c. pentetrazole (dose 30 mg/kg), the responders at 30 mg/kg came to 100%. For the same compound, the “Changed number of impulses to the control in %” value in the data set with Vogel Conflict Test (rat, 3 mg/kg p.o.) was 102%; in the data set on Vogel Conflict Test (rat, 10 mg/kg p.o.), 174%. For the same compound, the “dose from which an anxiolytic action was detected / equally effective dose” value in the data set with Vogel Conflict Test (rat, p.o.) is on record as 10 mg/kg. Moreover, the responders at 300 mg/kg with maximal electroshock [4] was 0%.

For `CC1CCCN(C2=CC(=O)N(c3ccc(Cl)cc3)C2)C1` (centres unmarked) [Compound 19, 1-(4-chlorophenyl)-4-(3-methylpiperidin-1-yl)-1,5-dihydropyrrol-2-one], the melting point lay within 188 to 189 °C. Also, in data set [3], the logP came out at 3.58. Besides, the responders at 100 mg/kg with s.c. pentetrazole (dose 100 mg/kg) was determined as 40%. Besides, in the data set with maximal electroshock [4], the responders at 300 mg/kg was determined as 0%.
